In ChEMBL document CHEMBL3576773, “Studies on the ATP Binding Site of Fyn Kinase for the Identification of New Inhibitors and Their Evaluation as Potential Agents against Tauopathies and Tumors” (J Med Chem, 2015):

Key:
[1] = target: Tyrosine-protein kinase Fyn (Homo sapiens, UniProt P06241); assay: Inhibition of human recombinant full-length Fyn using Src substrate peptide after 15 mins incubation by MicroBeta liquid scintillation counting analysis
[2] = Metabolic stability in human liver microsomes measured after 1 hr in presence of NADPH generating system; format: ADME; details: read-out: Stability
[3] = Permeability of the compound by PAMPA-LC-UV analysis; format: physicochemical
[4] = Permeability of the compound by BBB-PAMPA-LC-UV analysis; format: physicochemical
[5] = Induction of apoptosis in Ph+ CML patient CD34+ early hematopoietic progenitor cells assessed as increase in apoptotic level at 2 uM after 48 hrs by Annexin V-FITC/Propidium iodide staining based FACSCalibur flow cytometry; format: functional, Homo sapiens
[6] = tested on: K562; assay: Antiproliferative activity against human K562 cells assessed as vitality after 72 hrs by automatic cell counting analysis; format: functional, cell-based; details: K562, 72 h
[7] = tested on: MDA-MB-231; assay: Anticancer activity against human MDA-MB-231 cells assessed as cell growth inhibition after 20 to 70 hrs by Real-time RTCA iCELLgence system; format: functional, cell-based
[8] = Cytotoxicity against human fibroblast at 2 uM after 48 hrs; format: cell-based
[9] = Anticancer activity against human U87 cells assessed as cell growth inhibition after 20 to 70 hrs by Real-time RTCA iCELLgence system; format: functional, cell-based, U-87MG ATCC; details: U-87 MG
[10] = tested on: Liver microsome; assay: Drug formation in human liver microsomes treated with 1-(2-Chloro-2-phenylethyl)-3-(4-methyoxyphenyl)-1H-pyrazolo-[3,4-d]pyrimidin-4-amine measured after 1 hr by LC-UV-MS analysis; format: ADME
[11] = tested on: Liver microsome; assay: Drug formation in human liver microsomes treated with 3-(4-Chlorophenyl)-1-(2-chloro-2-phenylethyl)-1H-pyrazolo[3,4-d]pyrimidin-4-amine measured after 1 hr by LC-UV-MS analysis; format: ADME
[12] = tested on: Liver microsome; assay: Drug formation in human liver microsomes treated with 1-(2-Chloro-2-phenylethyl)-3-phenyl-1H-pyrazolo[3,4-d]-pyrimidin-4-amine hydrocloride measured after 1 hr by LC-UV-MS analysis; format: ADME
[13] = tested on: Liver microsome; assay: Drug formation in human liver microsomes treated with 1-(2-Chloro-2-phenylethyl)-3-(4-methylphenyl)-1H-pyrazolo[3,4-d]pyrimidin-4-amine measured after 1 hr by LC-UV-MS analysis; format: ADME
[14] = tested on: Liver microsome; assay: Drug formation in human liver microsomes treated with 1-(2-Chloro-2-phenylethyl)-3-(4-fluorophenyl)-1H-pyrazolo[3,4-d]pyrimidin-4-amine measured after 1 hr by LC-UV-MS analysis; format: ADME
[15] = tested on: K562; assay: Induction of apoptosis in human K562 cells assessed as accumulation of hypodiploid cells at 0.1 uM

Chain of Tyrosine-protein kinase Fyn (P06241 whole entry): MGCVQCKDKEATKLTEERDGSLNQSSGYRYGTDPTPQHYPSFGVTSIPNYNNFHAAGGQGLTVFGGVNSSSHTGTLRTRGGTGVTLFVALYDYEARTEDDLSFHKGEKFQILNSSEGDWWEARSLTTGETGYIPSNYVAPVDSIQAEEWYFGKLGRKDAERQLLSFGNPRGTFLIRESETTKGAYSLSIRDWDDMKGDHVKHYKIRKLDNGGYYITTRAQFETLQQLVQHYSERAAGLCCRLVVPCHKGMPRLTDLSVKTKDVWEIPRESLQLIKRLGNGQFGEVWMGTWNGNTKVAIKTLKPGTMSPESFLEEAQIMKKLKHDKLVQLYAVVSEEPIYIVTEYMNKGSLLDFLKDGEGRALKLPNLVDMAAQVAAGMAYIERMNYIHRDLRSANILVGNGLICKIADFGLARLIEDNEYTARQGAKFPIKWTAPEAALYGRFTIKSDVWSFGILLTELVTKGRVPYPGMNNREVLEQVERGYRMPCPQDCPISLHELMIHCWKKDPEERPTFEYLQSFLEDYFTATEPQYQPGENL

ClC(Cn1ncc2c(NCCc3ccccc3)nc(SCCN3CCOCC3)nc21)c1ccccc1 (stereo not drawn)
Ki [1]: Not Active

ClC(Cn1ncc2c(NCCc3ccccc3)nc(SC3CCCC3)nc21)c1ccccc1 (stereo not drawn)
Ki [1]: Not Active

Fc1cccc(Nc2nc(SC3CCCC3)nc3c2cnn3CC(Cl)c2ccccc2)c1 (stereo not drawn)
Ki [1]: Not Active

COc1ccc(-c2nn(CC(Cl)c3ccccc3)c3ncnc(N)c23)cc1 (stereo not drawn)
remaining at 1 h [2]: 95.6% | Papp [3]: 17.5 ×10⁻⁶ cm/s | Papp [4]: 14.5 ×10⁻⁶ cm/s

COC(Cn1nc(-c2ccccc2)c2c(N)nc(SC)nc21)c1ccccc1 (stereo not drawn)
Ki ([1]; read-out: Ki): 10000 nM

Nc1ncnc2c1c(-c1ccc(Cl)cc1)nn2CC(Cl)c1ccccc1 (stereo not drawn)
remaining at 1 h [2]: 85.2% | Activity [5]: 35% | IC50 [6]: 560 nM | IC50 [7]: 3700 nM | Papp [3]: 9.9 ×10⁻⁶ cm/s | Activity [8]: Non-toxic | IC50 [9]: 74 nM | Papp [4]: 8.4 ×10⁻⁶ cm/s

CCCCSc1nc(NCCc2ccccc2)c2cnn(CC(Cl)c3ccccc3)c2n1 (stereo not drawn)
Ki [1]: Not Active

CCC(C)Sc1nc(NCc2ccccc2)c2cnn(CC(Cl)c3ccccc3)c2n1 (stereo not drawn)
Ki [1]: Not Active

Nc1ncnc2c1c(-c1ccccc1)nn2CC(O)c1ccccc1 (stereo not drawn)
Drug metabolism [10]: metabolite_detected | Drug metabolism [11]: metabolite_detected | Drug metabolism [12]: metabolite_detected | Drug metabolism [13]: metabolite_detected | Drug metabolism [14]: metabolite_detected

Cc1ccc(-c2cc(-c3ccccc3)c3c(N)c(C(=O)Nc4ccc(F)cc4)sc3n2)cc1
Ki [1]: Not Active

Nc1ncnc2c1c(-c1ccccc1)nn2CC(=O)c1ccccc1
Drug metabolism [10]: metabolite_detected | Drug metabolism [11]: metabolite_detected | Drug metabolism [12]: metabolite_detected | Drug metabolism [13]: metabolite_detected | Drug metabolism [14]: metabolite_detected

Nc1ncnc2c1c(-c1ccccc1)nn2CC(Cl)c1ccccc1 (stereo not drawn)
remaining at 1 h [2]: 78.9% | Papp [3]: 12.8 ×10⁻⁶ cm/s | Papp [4]: 9.5 ×10⁻⁶ cm/s | Ki ([1]; read-out: Ki): 900 nM

CNc1nc(SC)nc2c1c(-c1ccccc1)nn2CCc1ccccc1
Ki ([1]; read-out: Ki): 10000 nM

CC(Cn1nc(-c2ccc(Cl)cc2)c2c(N)ncnc21)c1ccccc1 (stereo not drawn)
Ki ([1]; read-out: Ki): 780 nM

Clc1cccc(Nc2nc(SC3CCCC3)nc3c2cnn3CC(Cl)c2ccccc2)c1 (stereo not drawn)
Ki [1]: Not Active

CCOc1ccc(-c2[nH]ncc2CN2CCN(S(=O)(=O)N3CCCC3)CC2)cc1
Ki ([1]; read-out: Ki): 2250 nM

CC(=O)c1ccc(-c2nn(CC(C)c3ccccc3)c3ncnc(N)c23)cc1 (stereo not drawn)
Ki ([1]; read-out: Ki): 10000 nM

CCc1ccc2[nH]c(=O)c(CN(Cc3ccc4c(c3)OCO4)C(=O)Nc3ccc(F)cc3)cc2c1
Ki ([1]; read-out: Ki): 2100 nM

CCC(C)Sc1nc(NCCc2ccccc2)c2cnn(CC(Cl)c3ccccc3)c2n1 (stereo not drawn)
Ki [1]: Not Active

Nc1ncnc2c1c(-c1ccc(O)cc1)nn2CC(Cl)c1ccccc1 (stereo not drawn)
Drug metabolism [10]: metabolite_detected

Cc1ccc(-c2nn(CC(Cl)c3ccccc3)c3ncnc(N)c23)cc1 (stereo not drawn)
remaining at 1 h [2]: 90% | Activity [5]: 30% | Activity [15]: 50% | IC50 [6]: 300 nM | IC50 [7]: 8300 nM | Papp [3]: 10.9 ×10⁻⁶ cm/s | Activity [8]: Non-toxic | IC50 [9]: 780 nM | Papp [4]: 11.5 ×10⁻⁶ cm/s

Nc1ncnc2c1c(-c1ccc(F)cc1)nn2CC(Cl)c1ccccc1 (stereo not drawn)
remaining at 1 h [2]: 95.7% | IC50 [6]: 12600 nM | Papp [3]: 16.5 ×10⁻⁶ cm/s | Papp [4]: 12.9 ×10⁻⁶ cm/s
